Structures can show the parent of a compound that is named as a salt. Some results are limits rather than exact numbers.

The target of experiment [1] is S. aureus 133 translation. Put plainly: S. aureus in vitro transcription-translation assay (firefly luciferase, S30 extract). It is filed as biochemical. Conditions: 50% inhibition of the translation of firefly luciferase. The source says:
In Vitro Transcription-Translation with S. aureus Extracts
Construction of an S. aureus Luciferase Reporter Plasmid
For the construction of a reporter plasmid which can be used in an in vitro transcription-translation assay from S. aureus the plasmid pBESTluc (Promega Corporation, USA) is used. The E. coli tac promoter present in this plasmid in front of the firefly luciferase is replaced by the capA1 promoter with appropriate Shine-Dalgarno sequence from S. aureus. The primers CAPFor 5′-[…] […] […]-3′ and CAPRev 5′-[…]-3′ are used for this. The primer CAPFor contains the capA1 promoter, the ribosome binding site and the 5′ region of the luciferase gene. After PCR using pBESTluc as template it is possible to isolate a PCR product which contains the firefly luciferase gene with the fused capA1 promoter. This is, after restriction with ClaI and HindIII, ligated into the vector pBESTluc which has likewise been digested with ClaI and HindIII. The resulting plasmid p1a is able to replicate in E. coli and be used as template in the S. aureus in vitro transcription-translation assay.
Preparation of S30 Extracts from S. aureus
Six liters of BHI medium are inoculated with a 250 ml overnight culture of an S. aureus strain and allowed to grow at 37° C. until the OD600 nm is 2-4. The cells are harvested by centrifugation and washed in 500 ml of cold buffer A (10 mM Tris acetate, pH 8.0, 14 mM magnesium acetate, 1 mM DTT, 1 M KCl). After renewed centrifugation, the cells are washed in 250 ml of cold buffer A with 50 mM KCl, and the resulting pellets are frozen at −20° C. for 60 min. The pellets are thawed on ice in 30 to 60 min and taken up in buffer B (10 mM Tris acetate, pH 8.0, 20 mM magnesium acetate, 1 mM DTT, 50 mM KCl) up to a total volume of 99 ml. 1.5 ml portions of lysostaphin (0.8 mg/ml) in buffer B are introduced into 3 precooled centrifuge cups and each is mixed with 33 ml of the cell suspension. The samples are incubated at 37° C., shaking occasionally, for 45 to 60 min, before 150 μl of a 0.5 M DTT solution are added. The lysed cells are centrifuged at 30 000×g and 4° C. for 30 min. The cell pellet is taken up in buffer B and then centrifuged again under the same conditions, and the collected supernatants are combined. The supernatants are centrifuged again under the same conditions, and 0.25 volumes of buffer C (670 mM Tris acetate, pH 8.0, 20 mM magnesium acetate, 7 mM Na3 phosphoenolpyruvate, 7 mM DTT, 5.5 mM ATP, 70 μM amino acids (complete from Promega), 75 μg of pyruvate kinase (Sigma, Germany))/ml are added to the upper ⅔ of the supernatant. The samples are incubated at 37° C. for 30 min. The supernatants are dialysed against 21 of dialysis buffer (10 mM Tris acetate, pH 8.0, 14 mM magnesium acetate, 1 mM DTT, 60 mM potassium acetate) in a dialysis tube with a 3500 Da cut-off with one buffer change at 4° C. overnight. The dialysate is concentrated to a protein concentration of about 10 mg/ml by covering the dialysis tube with cold PEG 8000 powder (Sigma, Germany) at 4° C. The S30 extracts can be stored in aliquots at −70° C.
Determination of the IC50 in the S. aureus In Vitro Transcription-Translation Assay
Inhibition of protein biosynthesis of the compounds can be shown in an in vitro transcription-translation assay. The assay is based on the cell-free transcription and translation of firefly luciferase using the reporter plasmid p1a as template and cell-free S30 extracts obtained from S. aureus. The activity of the resulting luciferase can be detected by luminescence measurement.
The amount of S30 extract or plasmid p1a respectively to be employed must be tested anew for each preparation in order to ensure an optimal concentration in the assay. 3 μl of the substance to be tested, dissolved in 5% DMSO, are introduced into an MTP. Then 10 μl of a suitably concentrated plasmid solution p1a are added. […]

The subject of a further experiment is S. aureus RN4220Bi^R. Put plainly: MIC on biphenomycin-resistant S. aureus RN4220Bi^R. It is filed as cell-based. The note with it: Staphylococcus aureus, read-out: MIC, selected colony (strain RN4220Bi^R). The procedure: (§1) The S. aureus strain RN4220Bi^R is isolated in vitro. For this purpose, 100 μl portions of an S. aureus RN4220 cell suspension (about 1.2×10^8 cfu/ml) are plated out on an antibiotics-free agar plate (18.5 mM Na2HPO4, 5.7 mM KH2PO4, 9.3 mM NH4Cl, 2.8 mM MgSO4, 17.1 mM NaCl, 0.033 μg/ml thiamine hydrochloride, 1.2 μg/ml nicotinic acid, 0.003 μg/ml biotin, 1% glucose, 25 μg/ml of each proteinogenic amino acid with the addition of 0.4% BH broth and 1% agarose) and on an agar plate containing 2 μg/ml biphenomycin B (10×MIC), and incubated at 37° C. overnight. Whereas about 1×10^7 cells grow on the antibiotics-free plate, about 100 colonies grow on the antibiotics-containing plate, corresponding to a resistance rate of 1×10^−5. Some of the colonies grown on the antibiotics-containing plate are tested for the biphenomycin B MIC. One colony with an MIC of >50 μM is selected for further use, and the strain is referred to as RN4220Bi^R.

The next experiment deals with S. aureus RN4220. Put plainly: Isolation of biphenomycin-resistant strain from S. aureus RN4220: resistance rate on biphenomycin B agar. The note with it: S. aureus RN4220 on agar plate containing 2 μg/ml biphenomycin B (10×MIC), 37° C. overnight. It is filed as cell-based. The procedure: Isolation of the Biphenomycin-Resistant S. aureus Strains RN4220Bi^R and T17
as §1

As usually defined, the IC50 is the concentration that inhibits the measured activity by half. Read a low IC50 as inhibition by little substance. Broadly, the MIC is the lowest concentration that inhibits growth of the organism. As to `NC[C@H](O)C[C@@H]1NC(=O)[C@@H](N)Cc2cc(ccc2O)-c2ccc(O)c(c2)C[C@@H](C(=O)O)NC1=O` [Example 20A, 14(S)-Amino-11(S)-(3-amino-2(R)-hydroxypropyl)-5,17-dihydroxy-10,13-dioxo-9,12-diazatricyclo[14.3.1.1^2,6]henicosa-1(19),2,4,6(21),16(20),17-hexaene-8(S)-carboxylic acid dihydrochloride, reference compound], the IC50 in experiment [1] was determined as 1500 nM. Also, the minimal inhibitory concentration (MIC) in the experiment on S. aureus RN4220Bi^R was above 50 µM. For the same compound, the resistance rate in the experiment on S. aureus RN4220 is listed as 1×10^−5.

Values taken from patent publication US7446102B2, “Antibacterial amide macrocycles IV” (priority 2004, dated 2008).
